Measured values reported in PubChem BioAssay AID220 (DTP/NCI, 2004).
Where “and” joins values, the source holds several entries; their conditions need not be identical. Identical values can stand only once. Inconclusive results are not listed.

Test system: CD8F1 mice, subcutaneous mammary adenocarcinoma, T/C%
Test: NCI In Vivo Anticancer Drug Screen. Data for tumor model Mammary Adenocarcinoma CD8F1 (subcutaneous) in CD8F1
Conditions: higher = larger tumour
Description: The antitumor activity of compounds was measured in mice bearing transplantable tumors. Survival or tumor size were measured and the results are expressed as the measurement made in the treated group (T) divided by the measurement made in the vehicle treated control group (C). The tumor model used in this assay is Mammary Adenocarcinoma CD8F1 (subcutaneous) in CD8F1

[1] = endpoint: median tumor weight (est.), dose: 50.0 mg/kg/injection, schedule: Q07DX005 (ip), vehicle: Klucel (hydroxypropylcellulose) (HPC)
[2] = endpoint: median tumor weight (est.), dose: 100.0 mg/kg/injection, schedule: Q07DX005 (ip), vehicle: Klucel (hydroxypropylcellulose) (HPC)
[3] = endpoint: median tumor weight change, dose: 125.0 mg/kg/injection, schedule: Q01DX001 (ip), vehicle: saline with Tween-80
[4] = endpoint: median tumor weight change, dose: 250.0 mg/kg/injection, schedule: Q01DX001 (ip), vehicle: saline with Tween-80
[5] = endpoint: median tumor weight change, dose: 62.5 mg/kg/injection, schedule: Q01DX001 (ip), vehicle: saline
[6] = endpoint: mean tumor weight, dose: 12.5 mg/kg/injection, schedule: Q07DX006 (ip), vehicle: saline with Tween-80
[7] = endpoint: median tumor weight (est.), dose: 12.5 mg/kg/injection, schedule: Q07DX005 (ip), vehicle: saline with Tween-80
[8] = endpoint: median tumor weight (est.), dose: 25.0 mg/kg/injection, schedule: Q07DX005 (ip), vehicle: saline with Tween-80
[9] = endpoint: median tumor weight (est.), dose: 50.0 mg/kg/injection, schedule: Q07DX005 (ip), vehicle: saline with Tween-80

COc1ccc2c(c1)CCn1c(C)c(COC(=O)NC(C)C)c(COC(=O)NC(C)C)c1-2
T/C (endpoint: median tumor weight change, dose: 15.62 mg/kg/injection, schedule: Q01DX001 (ip), vehicle: distilled water + Tween-80): 107 % of control
T/C (endpoint: median tumor weight change, dose: 31.0 mg/kg/injection, schedule: Q01DX001 (ip), vehicle: distilled water + Tween-80): 106 % of control
T/C (endpoint: median tumor weight change, dose: 31.25 mg/kg/injection, schedule: Q01DX001 (ip), vehicle: distilled water + Tween-80): 109 % of control and 114 % of control
T/C (endpoint: median tumor weight change, dose: 62.0 mg/kg/injection, schedule: Q01DX001 (ip), vehicle: distilled water + Tween-80): 58 % of control
T/C (endpoint: median tumor weight change, dose: 250.0 mg/kg/injection, schedule: Q01DX001 (ip), vehicle: distilled water + Tween-80): 26 % of control

Nc1c(Cl)c(Cl)nc(C(=O)O)c1Cl
T/C (endpoint: mean tumor weight, dose: 6.25 mg/kg/injection, schedule: Q01DX015 (ip), vehicle: saline): 114 % of control
T/C (endpoint: mean tumor weight, dose: 6.25 mg/kg/injection, schedule: Q07DX007 (ip), vehicle: saline): 94 % of control
T/C (endpoint: mean tumor weight, dose: 12.5 mg/kg/injection, schedule: Q01DX015 (ip), vehicle: saline): 102 % of control
T/C (endpoint: mean tumor weight, dose: 12.5 mg/kg/injection, schedule: Q07DX007 (ip), vehicle: saline): 102 % of control
T/C (endpoint: mean tumor weight, dose: 25.0 mg/kg/injection, schedule: Q01DX015 (ip), vehicle: saline): 124 % of control
T/C (endpoint: mean tumor weight, dose: 25.0 mg/kg/injection, schedule: Q07DX007 (ip), vehicle: saline): 83 % of control
T/C (endpoint: mean tumor weight, dose: 200.0 mg/kg/injection, schedule: Q07DX006 (ip), vehicle: saline): 64 % of control
T/C (endpoint: mean tumor weight, dose: 300.0 mg/kg/injection, schedule: Q07DX006 (ip), vehicle: saline): 168 % of control

Nc1nc(N)c2cc(CNc3ccc(C(=O)NC(CC(=O)O)CC(=O)O)cc3)ccc2n1
T/C (endpoint: median tumor weight (est.), dose: 12.5 mg/kg/injection, schedule: Q07DX005 (ip), vehicle: Klucel (hydroxypropylcellulose) (HPC)): 86 % of control
T/C (endpoint: median tumor weight (est.), dose: 25.0 mg/kg/injection, schedule: Q07DX005 (ip), vehicle: Klucel (hydroxypropylcellulose) (HPC)): 92 % of control
T/C [1]: 81 % of control
T/C [2]: 54 % of control

CCCCC(=O)OCC(=O)[C@]1(O)Cc2c(O)c3c(c(O)c2[C@@H](OC2CC(NC(=O)C(F)(F)F)C(O)C(C)O2)C1)C(=O)c1c(OC)cccc1C3=O (some centres not stated)
T/C (endpoint: median tumor weight (est.), dose: 8.0 mg/kg/injection, schedule: Q07DX005 (ip), vehicle: distilled water + Tween-80): 77 % of control
T/C (endpoint: median tumor weight (est.), dose: 16.0 mg/kg/injection, schedule: Q07DX005 (ip), vehicle: distilled water + Tween-80): 86 % of control
T/C (endpoint: median tumor weight (est.), dose: 32.0 mg/kg/injection, schedule: Q07DX005 (ip), vehicle: distilled water + Tween-80): 58 % of control
T/C (endpoint: median tumor weight (est.), dose: 44.0 mg/kg/injection, schedule: Q07DX004 (ip), vehicle: clinical formulation): 51 % of control
T/C (endpoint: median tumor weight (est.), dose: 64.0 mg/kg/injection, schedule: Q07DX005 (ip), vehicle: distilled water + Tween-80): 18 % of control
T/C (endpoint: median tumor weight (est.), dose: 67.0 mg/kg/injection, schedule: Q07DX004 (ip), vehicle: clinical formulation): 32 % of control
T/C (endpoint: median tumor weight (est.), dose: 100.0 mg/kg/injection, schedule: Q07DX004 (ip), vehicle: clinical formulation): 10 % of control
T/C (endpoint: median tumor weight (est.), dose: 128.0 mg/kg/injection, schedule: Q07DX005 (ip), vehicle: distilled water + Tween-80): 2 % of control
T/C (endpoint: median tumor weight (est.), dose: 150.0 mg/kg/injection, schedule: Q07DX004 (ip), vehicle: clinical formulation): 3 % of control
T/C (endpoint: median tumor weight change, dose: 90.0 mg/kg/injection, schedule: Q01DX001 (ip), vehicle: clinical formulation): 45 % of control

C=C(C)[C@@H]1CCc2c(O)c(O)c(=O)cc(C)c2C1
T/C (endpoint: median tumor weight change, dose: 31.0 mg/kg/injection, schedule: Q01DX001 (ip), vehicle: saline with Tween-80): 83 % of control
T/C (endpoint: median tumor weight change, dose: 62.0 mg/kg/injection, schedule: Q01DX001 (ip), vehicle: saline with Tween-80): 57 % of control
T/C [3]: 88 % of control
T/C [4]: 57 % of control
T/C (endpoint: median tumor weight change, dose: 500.0 mg/kg/injection, schedule: Q01DX001 (ip), vehicle: saline with Tween-80): 93 % of control

COc1cc2oc(=O)ccc2cc1[C@@H]1OC(=O)C2(C)O[C@@H]12 (some centres not stated)
T/C (endpoint: median tumor weight (est.), dose: 0.94 mg/kg/injection, schedule: Q07DX005 (ip), vehicle: water): 174 % of control
T/C (endpoint: median tumor weight (est.), dose: 3.75 mg/kg/injection, schedule: Q07DX005 (ip), vehicle: water): 101 % of control
T/C (endpoint: median tumor weight (est.), dose: 7.5 mg/kg/injection, schedule: Q07DX005 (ip), vehicle: water): 105 % of control
T/C (endpoint: median tumor weight (est.), dose: 15.0 mg/kg/injection, schedule: Q07DX005 (ip), vehicle: water): 124 % of control

CCCC(=O)O
T/C (endpoint: median tumor weight change, dose: 7.81 mg/kg/injection, schedule: Q01DX001 (ip), vehicle: saline): 88 % of control
T/C (endpoint: median tumor weight change, dose: 15.62 mg/kg/injection, schedule: Q01DX001 (ip), vehicle: saline): 166 % of control
T/C (endpoint: median tumor weight change, dose: 31.25 mg/kg/injection, schedule: Q01DX001 (ip), vehicle: saline): 97 % of control
T/C [5]: 80 % of control
T/C (endpoint: median tumor weight change, dose: 125.0 mg/kg/injection, schedule: Q01DX001 (ip), vehicle: saline): 71 % of control

O=c1ccc2ccccc2o1
T/C (endpoint: median tumor weight change, dose: 125.0 mg/kg/injection, schedule: Q01DX001 (ip), vehicle: Klucel (hydroxypropylcellulose) (HPC)): 90 % of control

C1CNCOC1
T/C (endpoint: median tumor weight change, dose: 50.0 mg/kg/injection, schedule: Q01DX001 (ip), vehicle: saline): 74 % of control
T/C [5]: 48 % of control
T/C (endpoint: median tumor weight change, dose: 100.0 mg/kg/injection, schedule: Q01DX001 (ip), vehicle: saline): 82 % of control
T/C (endpoint: median tumor weight change, dose: 200.0 mg/kg/injection, schedule: Q01DX001 (ip), vehicle: saline): 90 % of control
T/C (endpoint: median tumor weight change, dose: 250.0 mg/kg/injection, schedule: Q01DX001 (ip), vehicle: saline): 96 % of control

CCCCc1ccc2nc(NC(=O)OC)[nH]c2c1
T/C [6]: 196 % of control
T/C (endpoint: mean tumor weight, dose: 100.0 mg/kg/injection, schedule: Q07DX006 (ip), vehicle: saline with Tween-80): 120 % of control
T/C (endpoint: mean tumor weight, dose: 200.0 mg/kg/injection, schedule: Q07DX006 (ip), vehicle: saline with Tween-80): 161 % of control
T/C (endpoint: mean tumor weight, dose: 400.0 mg/kg/injection, schedule: Q07DX006 (ip), vehicle: saline with Tween-80): 67 % of control
T/C [7]: 55 % of control
T/C [8]: 61 % of control
T/C [9]: 122 % of control
T/C (endpoint: median tumor weight (est.), dose: 100.0 mg/kg/injection, schedule: Q07DX005 (ip), vehicle: saline with Tween-80): 84 % of control
T/C (endpoint: median tumor weight (est.), dose: 200.0 mg/kg/injection, schedule: Q07DX005 (ip), vehicle: saline with Tween-80): 49 % of control

Clc1ccc2nnnn2n1
T/C [3]: 49 % of control
T/C [4]: 61 % of control

CCC[P+](c1ccccc1)(c1ccccc1)c1ccccc1
T/C (endpoint: mean tumor weight, dose: 3.12 mg/kg/injection, schedule: Q07DX006 (ip), vehicle: saline with Tween-80): 211 % of control
T/C (endpoint: mean tumor weight, dose: 6.25 mg/kg/injection, schedule: Q07DX006 (ip), vehicle: saline with Tween-80): 241 % of control
T/C [6]: 40 % of control
T/C (endpoint: mean tumor weight, dose: 25.0 mg/kg/injection, schedule: Q07DX006 (ip), vehicle: saline with Tween-80): 72 % of control
T/C (endpoint: mean tumor weight, dose: 50.0 mg/kg/injection, schedule: Q07DX006 (ip), vehicle: saline with Tween-80): 38 % of control
T/C (endpoint: median tumor weight (est.), dose: 3.12 mg/kg/injection, schedule: Q07DX005 (ip), vehicle: saline with Tween-80): 83 % of control
T/C (endpoint: median tumor weight (est.), dose: 6.25 mg/kg/injection, schedule: Q07DX004 (ip), vehicle: saline with Tween-80): 112 % of control
T/C (endpoint: median tumor weight (est.), dose: 6.25 mg/kg/injection, schedule: Q07DX005 (ip), vehicle: saline with Tween-80): 72 % of control
T/C (endpoint: median tumor weight (est.), dose: 12.5 mg/kg/injection, schedule: Q07DX004 (ip), vehicle: saline with Tween-80): 172 % of control
T/C [7]: 73 % of control
T/C (endpoint: median tumor weight (est.), dose: 25.0 mg/kg/injection, schedule: Q07DX004 (ip), vehicle: saline with Tween-80): 183 % of control
T/C [8]: 34 % of control
T/C (endpoint: median tumor weight (est.), dose: 50.0 mg/kg/injection, schedule: Q07DX004 (ip), vehicle: saline with Tween-80): 104 % of control
T/C [9]: 30 % of control

CC1CN=C(c2ccc(NC(=O)c3ccc(C(=O)Nc4ccc(C5=NCC(C)N5)cc4)cc3)cc2)N1 (configuration not stated)
T/C [1]: 51 % of control
T/C [2]: 94 % of control
T/C (endpoint: median tumor weight (est.), dose: 200.0 mg/kg/injection, schedule: Q07DX005 (ip), vehicle: Klucel (hydroxypropylcellulose) (HPC)): 36 % of control

CC1/C=C/C=C/CC/C=C/C=C/C=C/C=C/C(OC2OC(C)C(O)C(N)C2O)CC2OC(CC(O)C(O)CCC(O)CC(O)CC(O)CC(=O)OC(C)C(C)C1O)CC(O)C2C(=O)O (configuration not stated)
T/C (endpoint: median tumor weight change, dose: 31.25 mg/kg/injection, schedule: Q01DX001 (ip), vehicle: saline with Tween-80): 124 % of control
T/C (endpoint: median tumor weight change, dose: 62.5 mg/kg/injection, schedule: Q01DX001 (ip), vehicle: saline with Tween-80): 84 % of control
